From PMC12163635, “Synthetic Retinoids for the Modulation of Genomic and Nongenomic Processes in Neurodegenerative Diseases” (ACS Omega, 2025)

Key:
Experiment in all cases: Fluorescence competition binding assay (displacement of DC271)
RARα [1] = biological target: T1, RARα (Homo sapiens, UniProt P10276); conditions: for Kd: 100 nM RAR and DC271 on plate, read-out: Binding KD (± SD) RARα; for ΔGEXP RARα: experimental binding free energy from K D, ΔGexp=−RT ln K, 298.1 K
T1 construct: His6-3C-NusA (cleaved yes); made in house; host or cells: E. coli BL21(DE3), pET50b vector
T1 sequence (P10276 183-417 limits assumed): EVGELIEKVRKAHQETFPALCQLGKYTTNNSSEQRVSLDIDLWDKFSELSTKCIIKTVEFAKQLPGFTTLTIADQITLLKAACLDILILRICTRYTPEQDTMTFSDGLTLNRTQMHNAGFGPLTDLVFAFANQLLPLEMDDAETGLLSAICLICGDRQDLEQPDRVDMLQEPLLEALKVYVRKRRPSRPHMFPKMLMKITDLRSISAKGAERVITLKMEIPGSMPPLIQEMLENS
Protocol: (§1) Fluorescence competition assays were employed to determine the relative binding affinities of each synthetic retinoid toward the LBD of the RARs. The assay is based on the potential for competitive displacement of the inherently fluorescent retinoid DC271 from the LBP by a test nonfluorescent synthetic retinoid. Changes in the fluorescence were measured following the addition of a serial dilution of the test compound and the results were plotted to generate a binding curve. […] Assays were performed for both RARα and RARγ. […] Nonlinear least-squares regression analyses were performed to calculate binding affinities and reported as binding K D, the equilibrium dissociation constant between the RAR isoform and the test synthetic retinoid.
(§2) RARα/γ proteins were expressed in BL21(DE3) cells (NEB) transformed into pET50b (Novagen) and pOPINS3C vectors, respectively, carrying the gene construct and containing a His6-3C-NusA tag or His6-3C-SUMO tag used for solubility. Transformations were carried out under standard conditions using Quick Transformation Protocol (New England Biolabs). Successful transformants were grown overnight in 2xYT media (Melford) and frozen for storage at −80 °C in 50% glycerol. Expression cultures were inoculated from glycerol stocks into 25 mL of 2xYT media (Melford) with 50 μg/mL kanamycin or 100 μg/mL ampicillin (Sigma-Aldrich) and grown overnight with shaking (37 °C, 150 rpm). The overnight cultures were transferred into 1 L expression flasks (2xYT/ampicillin 100 μg/mL or 2xYT/kanamycin 50 μg/mL) and grown with shaking at 37 °C, 150 rpm. Induction was carried out at an OD600 of 0.6–0.8, with 1 mL of 1 M IPTG (1 mM in culture), before shaking overnight (20 h) at 18 °C. The resulting cultures were spun down into pellets using an Avanti Hi-Speed centrifuge (JLA 8.1000, 4000 rpm, 30 min, 4 °C), before the supernatant was removed and the bacterial pellet were frozen at −80 °C.
(§3) RARα/γ (pET50b or pOPINS3C, BL21(DE3) (NEB)) were resuspended from pellet with 20 mL Wash Buffer (20 mM Tris-HCl, 300 mM NaCl and 20 mM imidazole, pH 8) and the resulting suspension was sonicated on ice (40% power, 2 min, repeated twice with 1 min rest in-between) before centrifuging (Avanti Hi-Speed JA25.50, 20,000 rpm, 1 h, 4 °C). Supernatants were clarified using 0.45 μm syringe filters (Thermo Fisher Scientific). Affinity chromatography and size-exclusion (SEC) chromatography were carried out on AKTA Pure25 (Cytiva). Supernatants were loaded onto the HisTrap HP column (5 mL, Cytiva) and washed using 25 mL of wash Buffer. The column was washed with Wash Buffer until UV trace returned to baseline, before RARα/γ was eluted using a gradient of Elution Buffer (20 mM Tris-HCl, 300 mM NaCl, 500 mM imidazole pH 8). The resulting protein-containing fractions were analyzed by SDS-PAGE (200 V, 30 min) using SurePAGE Bis-Tris 12% precast gels (Genscript). Protein concentrations were estimated using absorbance at 280 nm on a DS-11 spectrophotometer (Denovix) with calculated molecular weights and extinction coefficients (Expasy). RAR proteins were cleaved overnight from 3C-NusA tag or 3C-SUMO-His tag using 1 Unit/100 μg protein of HRV3C protease (Thermo Fisher Scientific) at 4 °C. Solution after digestion was loaded onto a HiLoad 16/600 Superdex 75 prep-grade column (Cytiva) and cleaved RARα/γ was separated from the tag based on molecular weight and eluted from the column using SEC Buffer (20 mM Tris-HCl, 300 mM NaCl and 0.5 mM TCEP, pH 8) into 2 mL fractions. The resulting protein fractions were analyzed by SDS PAGE (200 V, 30 min) using SurePAGE Bis-Tris 12% precast gels (Genscript), before being concentrated to 5 mg/mL using centrifugal concentrators (Sartorius) and frozen at −80 °C in small aliquots for use in binding assays.

RARα [2] = system: RARα; design: species or system human; conditions: log-log plot of K D for RARα and RARγ
Protocol: as §1, §2, §3

RARγ = biological target: T2, RARγ (Homo sapiens, UniProt P13631); conditions: for Kd: 100 nM RAR and DC271 on plate, read-out: Binding KD (± SD) RARγ; for ΔGEXP RARγ: experimental binding free energy from K D, ΔGexp=−RT ln K, 298.1 K
T2 construct: His6-3C-SUMO (cleaved yes); made in house; host or cells: E. coli BL21(DE3), pOPINS3C vector
T2 sequence (P13631 185-419 limits assumed): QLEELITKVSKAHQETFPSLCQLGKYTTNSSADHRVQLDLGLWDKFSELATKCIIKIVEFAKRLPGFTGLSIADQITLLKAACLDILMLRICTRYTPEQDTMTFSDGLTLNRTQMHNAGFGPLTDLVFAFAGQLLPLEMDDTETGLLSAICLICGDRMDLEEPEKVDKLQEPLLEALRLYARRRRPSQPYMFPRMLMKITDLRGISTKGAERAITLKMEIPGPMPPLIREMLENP
Protocol: as §1, §2, §3

Chain of RARα (P10276 182-417): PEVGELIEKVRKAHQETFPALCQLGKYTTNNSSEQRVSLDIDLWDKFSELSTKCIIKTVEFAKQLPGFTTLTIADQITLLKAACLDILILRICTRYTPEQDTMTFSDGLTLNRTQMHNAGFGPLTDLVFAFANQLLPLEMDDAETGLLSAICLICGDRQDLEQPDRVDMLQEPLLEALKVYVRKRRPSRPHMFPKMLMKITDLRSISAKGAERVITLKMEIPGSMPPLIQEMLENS

Kd (RARα [1])	ΔGEXP RARα (RARα [1])	Kd (RARγ)	ΔGEXP RARγ (RARγ)	SMILES	binding preference RARα versus RARγ (from K D) (RARα [2])
28.4 nM	-10.40 kcal/mol	20.6 nM	-10.5 kcal/mol	Cc1cc2c(cc1C#Cc1ccc(C(=O)O)c(F)c1)C(C)(C)CCC2(C)C [Compound 17, 2-Fluoro-4-[2-(3,5,5,8,8-pentamethyl-5,6,7,8-tetrahydronaphthalen-2-yl)ethynyl]benzoic Acid]	close to the plotted line representing equal binding affinity for RARα and RARγ
30.9 nM	-10.3 kcal/mol	16 nM	-10.7 kcal/mol	CC1(C)CCC(C)(C)c2cc(C#Cc3ccc(C(=O)O)cc3F)ccc21 [Compound 14, 3-Fluoro-4-[2-(5,5,8,8-tetramethyl-5,6,7,8-tetrahydronaphthalen-2-yl)ethynyl]benzoic Acid]	bind RARγ stronger than RARα
18.1 nM	-10.6 kcal/mol	18.6 nM	-10.6 kcal/mol	Cc1cc2c(cc1C#Cc1ccc(C(=O)O)cc1F)C(C)(C)CCC2(C)C [Compound 18, 3-Fluoro-4-[2-(3,5,5,8,8-pentamethyl-5,6,7,8-tetrahydronaphthalen-2-yl)ethynyl]benzoic Acid]	close to the plotted line representing equal binding affinity for RARα and RARγ
87.1 nM	-9.64 kcal/mol	254 nM	-9.00 kcal/mol	CC1(C)CCC(C)(C)c2cc(C#Cc3ccc(C(=O)O)nc3)ccc21 [Compound 24, 5-[2-(5,5,8,8-Tetramethyl-5,6,7,8-tetrahydronaphthalen-2-yl)ethynyl]pyridine-2-carboxylic Acid]	bind RARα preferentially over RARγ

Second part, the compound before the results:

SMILES	Kd (RARα [1])	ΔGEXP RARα (RARα [1])	Kd (RARγ)	ΔGEXP RARγ (RARγ)	binding preference RARα versus RARγ (from K D) (RARα [2])
COc1cc2c(cc1C#Cc1cc(F)c(C(=O)O)c(F)c1)C(C)(C)CCC2(C)C [Compound 22, 2,6-Difluoro-4-[2-(3-methoxy-5,5,8,8-tetramethyl-5,6,7,8-tetrahydronaphthalen-2-yl)ethynyl]benzoic Acid]	105 nM	-9.55 kcal/mol	355 nM	-8.81 kcal/mol	bind RARα preferentially over RARγ
CC1(C)CCC(C)(C)c2nc(C#Cc3ccc(C(=O)O)cc3)cnc21 [Compound 30, 4-[2-(5,5,8,8-Tetramethyl-5,6,7,8-tetrahydroquinoxalin-2-yl)ethynyl]benzoic Acid]	155 nM	-9.29 kcal/mol	217 nM	-9.09 kcal/mol	close to the plotted line representing equal binding affinity for RARα and RARγ
Cc1sc(-c2ccc(C(=O)O)cc2)nc1-c1cnc2c(n1)C(C)(C)CCC2(C)C [Compound 40, 4-[5-Methyl-4-(5,5,8,8-tetramethyl-5,6,7,8-tetrahydroquinoxalin-2-yl)-1,3-thiazol-2-yl]benzoic Acid]	559 nM	-8.58 kcal/mol	655 nM	-8.44 kcal/mol	close to the plotted line representing equal binding affinity for RARα and RARγ
Cc1sc(-c2ccc(C(=O)O)c(F)c2)nc1-c1cnc2c(n1)C(C)(C)CCC2(C)C [Compound 42, 2-Fluoro-4-[5-methyl-4-(5,5,8,8-tetramethyl-5,6,7,8-tetrahydroquinoxalin-2-yl)-1,3-thiazol-2-yl]benzoic Acid]	162 nM	-9.27 kcal/mol	133 nM	-9.46 kcal/mol	close to the plotted line representing equal binding affinity for RARα and RARγ
